Read-outs that look alike come from different tables or passages of the source.
Tests used:
[1] = system: loblolly pine trees, Pinus taeda L.; settings: in vivo
Experimental: Treatment Methods: Trial 1: Loblolly pine trees, Pinus taeda L., 15-20 cm (=6-9 inch) diameter at breast height (DBH), were selected in March of the study year in a 20-year-old pine stand in east Texas (Angelina County). Each treatment was injected into four cardinal points about 0.3 m above the ground on each of 15 trees in April (16th-23rd) using the Arborjet Tree IV™ microinfusion system (Arborjet, Inc. Woburn, Mass.).
At the time of tree felling, a section of lower bole (˜60-80 cm) containing the injection points was taken from each injected tree. The bark was later removed around the injection points to determine if any damage had resulted from the installation of plugs and/or injection of chemicals. If damage was found, the length and width of any ‘lesions’ (discolored areas on the surface of the xylem) were measured.

Cerambycid = assay type: in vivo, cerambycids; settings: for Number of Attacks/0.3 m bole section at 3 m after 24 days: Cerambycid: 576 h
Experimental: After 5 weeks post-injection (May 28), frills were cut with a hatchet into the sapwood between the injection points near the base of the tree. A cellulose. sponge was inserted into each cut and loaded with I0 ml of a 4:1 mix of sodium N-methyldithiocarbamate (MS) (Woodfume®; Osmose, Inc., Buffalo, N.Y.) plus dimethyl sulfoxide (DMSO) (Aldrich Chemical) (Roton 1987, Strom et al. 2004). This method reduces resin to near zero in 1-2 weeks. The intent was to stress the tree and make it susceptible to attack by bark beetles without killing it. Pheromone packets containing racemic ipsdienol+lanerione, ipsenol or cis-verbenol were attached (June 7) atop 3 m stakes evenly spaced in between and around the study trees to encourage attack by the three Ips engraver species. […] Thus, ipsdienol and cis-verbenol pheromone baits were deployed on all stakes on June 17th. The baits were changed every 4 weeks.
Trial 2. Three weeks after pheromone deployment (June 28), each tree was evaluated by marking a 30 cm (1 ft) section of bole at a height of 3 m (10 ft). All visible Ips attacks and cerambycid egg niches were counted within the marked area. The number of trees with fading crowns also was recorded. Thereafter, the trees were evaluated weekly for crown fading. When mortality did occur, the trees were felled and two bolts taken and evaluated for attack success and gallery length as described in Trial 1. All remaining trees were felled 66 days (Aug. 9) after initial pheromone deployment when no additional trees had died for 2 weeks. Treatment efficacy was determined by comparing tree survival, beetle attacks and egg gallery length on treated and untreated bolts. As before, data were transformed and analyzed by GLM and the Fisher's Protected LSD test using the Statview statistical program.

SMILES: N#Cc1nn(-c2c(Cl)cc(C(F)(F)F)cc2Cl)c(N)c1[S+]([O-])C(F)(F)F (centres unmarked) [Fip, 5-amino-3-cyano-1-(2,6-dichloro-4-trifluoromethylphenyl)-4-trifluoromethylsulfinylpyrazole]
- Lesion Length ([1]; 1 month): 4.1 a cm
- Lesion Width ([1]; 1 month): 1.5 a cm
- Lesion Length ([1]; 3 months): 4.1 a cm
- Lesion Width ([1]; 3 months): 1.4 cm
- Borer Feeding Area (% of Total Area) (Cerambycid): 0.0 % of Total Area
- Number of Attacks/0.3 m bole section at 3 m after 24 days: Cerambycid (Cerambycid): 1.3 a

SMILES: O=[N+]([O-])NC1=NCCN1Cc1ccc(Cl)nc1 [Imid]
- Lesion Length ([1]; 1 month): 7.3 b cm
- Lesion Width ([1]; 1 month): 1.7 a cm
- Lesion Length ([1]; 3 months): 6.1 a cm
- Lesion Width ([1]; 3 months): 1.3 cm
- Number of Attacks/0.3 m bole section at 3 m after 24 days: Cerambycid (Cerambycid): 4.7 a
